From patent US9073874B2, “Cyclic N,N′-diarylthioureas and N,N′-diarylureas-androgen receptor antagonists, anticancer agent, method for preparation and use thereof” (priority 2010, dated 2015)

Key:
[1] = Maximum tolerated dose, peroral once a day for 5 days in CD1 male mice; type: in vivo
Description: The maximum tolerated doses (MTD) of novel antagonists (R)-1 and their analog Ia were determined in experiments on CD1 male mice at peroral administration once a day for 5 days in doses of 10, 30, and 100 mg/kg. The compound was dissolved in sterile water with addition of Tween 80. Sterile water with Tween 80 was given to control animals (Placebo group). Animals' body weight and mortality rate were estimated. Statistical comparison of groups was carried out according to a non-parametric ANOVA test using Statistica software.

CRF1 (h) = CRF1 (h) (Homo sapiens, UniProt P34998); experiment: competitive radioligand binding assay, CRF1 (h) (agonist radioligand)
BZD (central) = experiment: competitive radioligand binding assay, BZD (central) (agonist radioligand); conditions: 10 μM
N neuronal α4β2 (h) = N neuronal α4β2 (h) (Homo sapiens, UniProt P17787+P43681); experiment: competitive radioligand binding assay, N neuronal α4β2 (h) (agonist radioligand)
NOP (ORL1) (h) = NOP (ORL1) (h) (Homo sapiens, UniProt P41146); experiment: competitive radioligand binding assay, NOP (ORL1) (h) (agonist radioligand)
[2] = target: norepinephrine transporter (h) (Homo sapiens, UniProt P23975); experiment: competitive radioligand binding assay, norepinephrine transporter (h) (antagonist radioligand)
opioid (non-selective) = experiment: competitive radioligand binding assay, opioid (non-selective) (antagonist radioligand); conditions: 10 μM
TRH1 (h) = TRH1 (h) (Homo sapiens, UniProt P34981); experiment: competitive radioligand binding assay, TRH1 (h) (agonist radioligand)
D4.4 (h) = D4.4 (h) (Homo sapiens, UniProt P21917); experiment: competitive radioligand binding assay, D4.4 (h) (antagonist radioligand)
MT1 (ML1A) (h) = MT1 (ML1A) (h) (Homo sapiens, UniProt P48039); experiment: competitive radioligand binding assay, MT1 (ML1A) (h) (agonist radioligand)
B2 (h) = B2 (h) (Homo sapiens, UniProt P30411); experiment: competitive radioligand binding assay, B2 (h) (agonist radioligand)
Na+ channel (site 2) = experiment: competitive radioligand binding assay, Na+ channel (site 2) (antagonist radioligand); conditions: 10 μM
P2Y = experiment: competitive radioligand binding assay, P2Y (agonist radioligand); conditions: 10 μM
[3] = target: choline transporter (CHT1) (h) (Homo sapiens, UniProt Q9GZV3); experiment: competitive radioligand binding assay, choline transporter (CHT1) (h) (antagonist radioligand)
LnCAP-Z2 tumors = experiment: Prostate cancer xenograft model, SCID male mice bearing LnCAP-Z2 tumors; type: in vivo; conditions: for antitumor efficacy (in words): oral
Description: SCID male mice bearing LnCAP-Z2 tumors (mean volume˜160-190 mm^3) were treated daily by oral gavage with vehicle or drugs for 21 days. Individual tumor volume change by the end of the study. Percentage of change in individual tumor volumes as compared to the start of treatment.
FIG. 6. […] SCID male mice bearing LnCAP-Z2 tumors (mean volume˜160-190 mm^3) treated daily by oral gavage with vehicle or drugs for 21 days. Individual tumor volume change by the end of the study. Percentage of change in individual tumor volumes compared to the start of treatment.
FIG. 7. […] SCID male mice bearing LnCAP-Z2 tumors (mean volume˜160-190 mm^3) treated daily by oral gavage with vehicle or drugs for 21 days. (A)—Tumor weight by the end of the study. Mean±SEM are presented. […] (B)—PSA expression by the end of the study. Plasma samples were collected 24 hours after the last drug administration. Mean±SEM are presented.
The antitumor efficacy of (R)-1 was tested in a xenograft model of prostate cancer (FIGS. 6 and 7). Male immunodeficient mice harboring LnCAP-Z2 tumors were treated orally for 21 days with either vehicle or (R)-1 at 20 and 50 mg/kg once daily and at 20 mg/kg twice daily. […] Twenty-four hours after last treatment, blood samples were collected from all animals and used for measuring PSA expression and drug concentration. In addition, the concentration of drugs and Ki67 expression were measured in tumor samples.

[4] = Distribution in plasma, brain and prostate after single IV administration in rats; type: in vivo; conditions: single IV 2 mg/kg
GR (h) = GR (h) (Homo sapiens, UniProt P04150); experiment: competitive radioligand binding assay, GR (h) (agonist radioligand)
KATP channel = experiment: competitive radioligand binding assay, KATP channel (antagonist radioligand); conditions: 10 μM
NK2 (h) = NK2 (h) (Homo sapiens, UniProt P21452); experiment: competitive radioligand binding assay, NK2 (h) (agonist radioligand)
CCK1 (CCKA) (h) = CCK1 (CCKA) (h) (Homo sapiens, UniProt P32238); experiment: competitive radioligand binding assay, CCK1 (CCKA) (h) (agonist radioligand)
ETA (h) = ETA (h) (Homo sapiens, UniProt P25101); experiment: competitive radioligand binding assay, ETA (h) (agonist radioligand)
AT2 (h) = AT2 (h) (Homo sapiens, UniProt P50052); experiment: competitive radioligand binding assay, AT2 (h) (agonist radioligand)
H2 (h) = H2 (h) (Homo sapiens, UniProt P25021); experiment: competitive radioligand binding assay, H2 (h) (antagonist radioligand)
A1 (h) = A1 (h) (Homo sapiens, UniProt P30542); experiment: competitive radioligand binding assay, A1 (h) (antagonist radioligand)
NK1 (h) = NK1 (h) (Homo sapiens, UniProt P25103); experiment: competitive radioligand binding assay, NK1 (h) (agonist radioligand)
H1 (h) = H1 (h) (Homo sapiens, UniProt P35367); experiment: competitive radioligand binding assay, H1 (h) (antagonist radioligand)
ER (non-selective) (h) = experiment: competitive radioligand binding assay, ER (non-selective) (h) (agonist radioligand); design: species or system human; conditions: 10 μM
β2 (h) = β2 (h) (Homo sapiens, UniProt P07550); experiment: competitive radioligand binding assay, β2 (h) (agonist radioligand)
[5] = system: sigma (non-selective) (h); experiment: competitive radioligand binding assay, sigma (non-selective) (h) (agonist radioligand); design: species or system human; conditions: 10 μM
D2S (h) = D2S (h) (Homo sapiens, UniProt P14416); experiment: competitive radioligand binding assay, D2S (h) (antagonist radioligand)

CNC(=O)c1ccc(N2C(=S)N(c3ccc(C#N)c(C(F)(F)F)c3)C(=O)[C@]23CCOC3)cc1F [(R)-1, 4-[(R)-3-(4-cyano-3-trifluoromethyl-phenyl)-4-oxo-2-thioxo-7-oxa-1,3-diaza-spiro[4.4]non-1-yl]-2-fluoro-N-methyl-benzamide]
MTD at 5 days ([1]; CD1, mouse, in vivo, oral, male CD-1 mice, peroral once a day for 5 days): > 100 mg/kg
body weight versus control animals (Placebo group) ([1]; CD1 male mice, peroral, 100 mg/kg): no statistical significance was observed
mortality ([1]; CD1 male mice, peroral, doses below 100 mg/kg (10 and 30 mg/kg)): did not lead to death
toxicity compared with the (Ia) antagonist ([1]; male CD-1 mice, from MTD): more than three times less toxic
inhibition at 10 µM (CRF1 (h)): -0.1%
% Inhibition (BZD (central)): −16.6%
inhibition at 10 µM (N neuronal α4β2 (h)): 0.2%
inhibition at 10 µM (NOP (ORL1) (h)): -1.7%
inhibition at 10 µM [2]: -1.1%
% Inhibition (opioid (non-selective)): 19.3%
inhibition at 10 µM (TRH1 (h)): 3.4%
inhibition at 10 µM (D4.4 (h)): -4.7%
inhibition at 10 µM (MT1 (ML1A) (h)): -6.2%
inhibition at 10 µM (B2 (h)): -5.2%
% Inhibition (Na+ channel (site 2)): −11.6%
% Inhibition (P2Y): 33.3%
inhibition at 10 µM [3]: 9.7%
tumors regressed (LnCAP-Z2 tumors; 20 mg/kg twice daily, oral gavage, 21 days): 4 of 8
effect on individual tumors (in words) (LnCAP-Z2 tumors; analysis of individual tumors, 21 days oral): stimulate tumor regression
antitumor efficacy (in words) (LnCAP-Z2 tumors; once daily at 20 or 50 mg/kg, 21 days): comparable with Ia administered once daily at 10 mg/kg
antitumor efficacy (in words) (LnCAP-Z2 tumors; twice daily at 20 mg/kg, 21 days): highest antitumor efficacy
concentration at 30 min ([4]; rat, plasma, 30 min, Mean ± SD, n = 3): 746 ± 104 ng/mL
concentration at 120 min ([4]; rat, plasma, 120 min, Mean ± SD, n = 3): 522 ± 57 ng/mL
Brain/Plasma ([4]; 30 min): 0.19 ± 0.02
Prostate/Plasma ([4]; 30 min): 1.55 ± 0.08
Brain ([4]; 30 min, Mean ± SD, n = 3): 145 ± 22 ng/g
Plasma ([4]; 30 min, Mean ± SD, n = 3): 746 ± 104 ng/mL
Prostate ([4]; 30 min, Mean ± SD, n = 3): 1159 ± 164 ng/g
Brain/Plasma ([4]; 120 min): 0.17 ± 0.35
Prostate/Plasma ([4]; 120 min): 1.20 ± 0.36
Brain ([4]; 120 min, Mean ± SD, n = 3): 89 ± 10 ng/g
Plasma ([4]; 120 min, Mean ± SD, n = 3): 522 ± 57 ng/mL
Prostate ([4]; 120 min, Mean ± SD, n = 3): 625 ± 108 ng/g
inhibition at 10 µM (GR (h)): 29.4%
% Inhibition (KATP channel): −0.8%
inhibition at 10 µM (NK2 (h)): -8.7%
inhibition at 10 µM (CCK1 (CCKA) (h)): 10.6%
inhibition at 10 µM (ETA (h)): -2.5%
inhibition at 10 µM (AT2 (h)): -6.2%
inhibition at 10 µM (H2 (h)): -2.6%
inhibition at 10 µM (A1 (h)): -11.8%
inhibition at 10 µM (NK1 (h)): 14.7%
inhibition at 10 µM (H1 (h)): 0.7%
% Inhibition (ER (non-selective) (h)): −7.6%
inhibition at 10 µM (β2 (h)): -8%
% Inhibition [5]: 9.8%
inhibition at 10 µM (D2S (h)): -8.1%
